Laboratory results as given in PubChem BioAssay (NCI).
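Where inhibition never reached the appropriate level, the endpoint shown equals the highest concentration tested. Otherwise, values were interpolated linearly from a five-concentration, 48-hour dose response in 96-well plates. TGI: concentration producing complete growth inhibition.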

How the values were obtained:
Experiment in all cases: NCI tumour cell line growth inhibition, 48 h
U251 CNS = test system: U251 CNS
KM20L2 colon = test system: KM20L2 colon
HL-60(TB) leukemia = test system: HL-60(TB) leukemia
COLO 205 colon = test system: COLO 205 colon
K-562 leukemia = test system: K-562 leukemia
OVCAR-3 ovarian = test system: OVCAR-3 ovarian
RXF 393 renal = test system: RXF 393 renal
SNB-75 CNS = test system: SNB-75 CNS
HCT-15 colon = test system: HCT-15 colon
SNB-78 CNS = test system: SNB-78 CNS
A498 renal = test system: A498 renal
LXFL 529 NSCLC = test system: LXFL 529 NSCLC
OVCAR-5 ovarian = test system: OVCAR-5 ovarian
LOX IMVI melanoma = test system: LOX IMVI melanoma
UO-31 renal = test system: UO-31 renal
HCT-116 colon = test system: HCT-116 colon
SK-MEL-5 melanoma = test system: SK-MEL-5 melanoma
TK-10 renal = test system: TK-10 renal
MALME-3M melanoma = test system: MALME-3M melanoma
SK-MEL-2 melanoma = test system: SK-MEL-2 melanoma
HOP-92 NSCLC = test system: HOP-92 NSCLC
HOP-62 NSCLC = test system: HOP-62 NSCLC
RPMI-8226 leukemia = test system: RPMI-8226 leukemia
SW-620 colon = test system: SW-620 colon
EKVX NSCLC = test system: EKVX NSCLC
KM12 colon = test system: KM12 colon
MOLT-4 leukemia = test system: MOLT-4 leukemia
SF-268 CNS = test system: SF-268 CNS
M19-MEL melanoma = test system: M19-MEL melanoma
CAKI-1 renal = test system: CAKI-1 renal
ACHN renal = test system: ACHN renal
SK-OV-3 ovarian = test system: SK-OV-3 ovarian
A549 NSCLC = test system: A549 NSCLC
786-0 renal = test system: 786-0 renal
RXF-631 renal = test system: RXF-631 renal
OVCAR-8 ovarian = test system: OVCAR-8 ovarian
UACC-62 melanoma = test system: UACC-62 melanoma
DMS 114 small cell lung = test system: DMS 114 small cell lung
NCI-H23 lung = test system: NCI-H23 lung
SK-MEL-28 melanoma = test system: SK-MEL-28 melanoma
NCI-H522 lung = test system: NCI-H522 lung
SNB-19 CNS = test system: SNB-19 CNS
SF-539 CNS = test system: SF-539 CNS
IGROV1 ovarian = test system: IGROV1 ovarian
OVCAR-4 ovarian = test system: OVCAR-4 ovarian
M14 melanoma = test system: M14 melanoma
HCC-2998 colon = test system: HCC-2998 colon
UACC-257 melanoma = test system: UACC-257 melanoma
NCI-H460 lung = test system: NCI-H460 lung
DLD-1 colon = test system: DLD-1 colon
NCI-H226 lung = test system: NCI-H226 lung
CCRF-CEM leukemia = test system: CCRF-CEM leukemia
XF 498 CNS = test system: XF 498 CNS
SN12C renal = test system: SN12C renal
SR leukemia = test system: SR leukemia
HOP-18 NSCLC = test system: HOP-18 NSCLC
DMS 273 small cell lung = test system: DMS 273 small cell lung
HT29 colon = test system: HT29 colon
SF-295 CNS = test system: SF-295 CNS

Structure (SMILES): NC(=O)C(=O)C1CCC2=C(Sc3ccccc3N2)C1=O (stereo unspecified)
- TGI (U251 CNS): > 100 µM
- TGI (KM20L2 colon): > 100 µM
- TGI (HL-60(TB) leukemia): > 100 µM
- TGI (COLO 205 colon): > 100 µM
- TGI (K-562 leukemia): > 100 µM
- TGI (OVCAR-3 ovarian): > 100 µM
- TGI (RXF 393 renal): > 100 µM
- TGI (SNB-75 CNS): > 100 µM
- TGI (HCT-15 colon): > 100 µM
- TGI (SNB-78 CNS): > 100 µM
- TGI (A498 renal): > 100 µM
- TGI (LXFL 529 NSCLC): > 100 µM
- TGI (OVCAR-5 ovarian): > 100 µM
- TGI (LOX IMVI melanoma): > 100 µM
- TGI (UO-31 renal): > 100 µM
- TGI (HCT-116 colon): > 100 µM
- TGI (SK-MEL-5 melanoma): > 100 µM
- TGI (TK-10 renal): > 100 µM
- TGI (MALME-3M melanoma): > 100 µM
- TGI (SK-MEL-2 melanoma): > 100 µM
- TGI (HOP-92 NSCLC): > 100 µM
- TGI (HOP-62 NSCLC): > 100 µM
- TGI (RPMI-8226 leukemia): > 100 µM
- TGI (SW-620 colon): > 100 µM
- TGI (EKVX NSCLC): > 100 µM
- TGI (KM12 colon): > 100 µM
- TGI (MOLT-4 leukemia): > 100 µM
- TGI (SF-268 CNS): > 100 µM
- TGI (M19-MEL melanoma): > 100 µM
- TGI (CAKI-1 renal): > 100 µM
- TGI (ACHN renal): > 100 µM
- TGI (SK-OV-3 ovarian): > 100 µM
- TGI (A549 NSCLC): > 100 µM
- TGI (786-0 renal): > 100 µM
- TGI (RXF-631 renal): > 100 µM
- TGI (OVCAR-8 ovarian): > 100 µM
- TGI (UACC-62 melanoma): > 100 µM
- TGI (DMS 114 small cell lung): > 100 µM
- TGI (NCI-H23 lung): > 100 µM
- TGI (SK-MEL-28 melanoma): > 100 µM
- TGI (NCI-H522 lung): > 100 µM
- TGI (SNB-19 CNS): > 100 µM
- TGI (SF-539 CNS): > 100 µM
- TGI (IGROV1 ovarian): > 100 µM
- TGI (OVCAR-4 ovarian): > 100 µM
- TGI (M14 melanoma): > 100 µM
- TGI (HCC-2998 colon): > 100 µM
- TGI (UACC-257 melanoma): > 100 µM
- TGI (NCI-H460 lung): > 100 µM
- TGI (DLD-1 colon): > 100 µM

Structure (SMILES): Cc1ccccc1NC(=O)C(=O)C(C#N)c1ccccc1C (stereo unspecified)
- TGI (U251 CNS): > 100 µM
- TGI (KM20L2 colon): > 100 µM
- TGI (HL-60(TB) leukemia): > 100 µM
- TGI (COLO 205 colon): > 100 µM
- TGI (K-562 leukemia): 61.5 µM
- TGI (OVCAR-3 ovarian): > 100 µM
- TGI (RXF 393 renal): > 100 µM
- TGI (NCI-H226 lung): > 100 µM
- TGI (SNB-75 CNS): > 100 µM
- TGI (HCT-15 colon): > 100 µM
- TGI (SNB-78 CNS): > 100 µM
- TGI (A498 renal): > 100 µM
- TGI (LXFL 529 NSCLC): > 100 µM
- TGI (OVCAR-5 ovarian): > 100 µM
- TGI (CCRF-CEM leukemia): 89.8 µM
- TGI (LOX IMVI melanoma): 39.4 µM
- TGI (UO-31 renal): > 100 µM
- TGI (HCT-116 colon): > 100 µM
- TGI (SK-MEL-5 melanoma): > 100 µM
- TGI (TK-10 renal): > 100 µM
- TGI (MALME-3M melanoma): > 100 µM
- TGI (SK-MEL-2 melanoma): > 100 µM
- TGI (HOP-92 NSCLC): > 100 µM
- TGI (HOP-62 NSCLC): > 100 µM
- TGI (RPMI-8226 leukemia): > 100 µM
- TGI (SW-620 colon): 36.5 µM
- TGI (EKVX NSCLC): > 100 µM
- TGI (XF 498 CNS): > 100 µM
- TGI (KM12 colon): > 100 µM
- TGI (MOLT-4 leukemia): > 100 µM
- TGI (SF-268 CNS): > 100 µM
- TGI (CAKI-1 renal): > 100 µM
- TGI (ACHN renal): > 100 µM
- TGI (SK-OV-3 ovarian): > 100 µM
- TGI (A549 NSCLC): > 100 µM
- TGI (786-0 renal): > 100 µM
- TGI (OVCAR-8 ovarian): > 100 µM
- TGI (UACC-62 melanoma): > 100 µM
- TGI (DMS 114 small cell lung): > 100 µM
- TGI (SN12C renal): > 100 µM
- TGI (NCI-H23 lung): > 100 µM
- TGI (SK-MEL-28 melanoma): > 100 µM
- TGI (NCI-H522 lung): > 100 µM
- TGI (SNB-19 CNS): > 100 µM
- TGI (SR leukemia): > 100 µM
- TGI (SF-539 CNS): > 100 µM
- TGI (IGROV1 ovarian): > 100 µM
- TGI (HOP-18 NSCLC): > 100 µM
- TGI (M14 melanoma): > 100 µM
- TGI (DMS 273 small cell lung): > 100 µM
- TGI (HCC-2998 colon): > 100 µM
- TGI (HT29 colon): > 100 µM
- TGI (UACC-257 melanoma): > 100 µM
- TGI (NCI-H460 lung): > 100 µM
- TGI (SF-295 CNS): > 100 µM
- TGI (DLD-1 colon): > 100 µM
